Consider 2 substances from patent US4629782A, “Crystalline form of N-acetylmuramyl-L-α-aminobutyryl-D-isoglutamine” (Syntex (U.S.A.) Inc., priority 1984, dated 1986).

A short description of data set [1]: Hygroscopicity, visual comparison at 76% relative humidity and ambient temperature. Type of data set: physicochemical. The settings on record: 76% relative humidity, ambient temperature, visual observation. The text has this: The crystalline monohydrate of this invention is less hygroscopic than amorphous ABU-MDP. This is readily observed by visually comparing samples of each in separate containers at 76% relative humidity and ambient temperature.

Data set [2] can be described thus: Thermogravimetric analysis (TGA) after vacuum drying and exposure to air. The class given is physicochemical. The conditions noted are these: dried under house vacuum 12 hours, exposed to air about 3 hours; 1.5% initial weight loss attributed to surface water. Here is the method: The mole ratio of water to ABU-MDP in the crystalline monohydrate of formula (1) was determined by thermogravimetric analysis (TGA). A small amount of the monohydrate prepared in accordance with Example II was dried under "house" vacuum for 12 hours and then exposed to air for about 3 hours. […] This analysis was conducted with a Perkin Elmer TGS-2 thermogravimetric balance. The heating rate was 2.5° C. per minute from 40° C. to 160° C. A dry nitrogen purge was maintained throughout each run.

For “N-acetylmuramyl-L-α-aminobutyryl-D-isoglutamine [Amorphous ABU-MDP, reference compound]”, the “Hygroscopicity: physical state on exposure to humidity” value in data set [1] is “turns into a syrupy solution within about an hour”. Consider “acetylmuramyl-L-α-aminobutyryl-D-isoglutamine monohydrate [Crystalline monohydrate]”, for which the “Hygroscopicity indicated by TGA” value in data set [2] is given as “slightly hygroscopic”. In data set [1], the “Hygroscopicity: physical state on exposure to humidity” value is on record as “remains a solid”.
